Data on 2 molecules can be found in ChEMBL document CHEMBL1151665, “Plant anticancer agents, XLI. Cardiac glycosides from Streblus asper” (1985).

Structures are written as SMILES. Converted amounts (≈) assume the structure as drawn.

This experiment deals with KB. Description: Cytotoxicity against human KB cells. The note with it: read-out: ED50.

As for `CO[C@H]1[C@H](O[C@H]2CC[C@]3(C=O)[C@H]4CC[C@]5(C)[C@@H](C6=CC(=O)OC6)CC[C@]5(O)[C@@H]4CC[C@]3(O)C2)O[C@H](C)[C@@H](O)[C@@H]1OC` [MANSONIN], the EC50 came to 0.042 µg/mL (≈ 0.0726 µM).

On to `CO[C@H]1[C@H](O[C@H]2CC[C@]3(C=O)[C@H]4CC[C@]5(C)[C@@H](C6=CC(=O)OC6)CC[C@]5(O)[C@@H]4CC[C@]3(O)C2)O[C@H](C)[C@H](O)[C@@H]1OC` [STREBLOSIDE], for which the EC50 turned out to be 0.035 µg/mL (≈ 0.0605 µM).
